Test results: ChEMBL document CHEMBL1127830, “A new photoaffinity analog of cGMP: potent inhibitor of cyclic nucleotide phosphodiesterase” (J Med Chem, 1994)

Tests used:
[1] = Inhibition of human platelet cAMP phosphodiesterase
[2] = Inhibition of rat bladder dome cAMP phosphodiesterase
[3] = Inhibition of rat bladder dome cGMP phosphodiesterase

- IC50 [1]: 3.4 µM
- IC50 [2]: 15.8 µM
- IC50 [3]: 0.3 µM
SMILES: NC1=NC(=O)C2N=CN([C@@H]3O[C@@H]4COP(=O)(O)O[C@H]4[C@H]3OC(=O)c3ccc(C(=O)c4ccccc4)cc3)C2=N1 (stereo partly drawn)
